Experimental data published in patent publication US12458702B2 (NATIONAL TAIWAN UNIVERSITY, priority 2022, dated 2025).
“Also recorded” adds a separate entry of the source. Where two headings read alike, the source gives them in different places.

Assays:
[1] = tested on: HT-29; test: Cytotoxicity by SRB assay in HT-29 cells
[2] = tested on: CRC cell lines HCT-116 and HT-29; test: Cytotoxicity against CRC cell lines, summary over both lines (SRB assay); type: cell-based, human; settings: for cytotoxicity against CRC cell lines, in words: HCT-116 and HT-29, with or without GSH; for IC50: read-out: IC50 in CRC cells
Procedure: (§1) The fraction of cell survival was calculated as follows. Survival fraction=(OD treated−blank)/(OD control−blank). […] Each experiment was repeated three times.

[3] = tested on: HCT-116; test: Cytotoxicity by SRB assay in HCT-116 cells; type: cell-based, human
Procedure: as §1

[4] = Human plasma stability (RP-HPLC); type: in vitro ADME; settings: 95% human plasma, 37° C.
Procedure: To access human plasma stability, synthesized conjugates were prepared in 95% human plasma. […] The mixture was centrifuged at 13,000 rpm for 5 min. […] For compounds 30 and 31, they were dissolved in DMA and added GSH (11.2 mM or 11.2 μM) solution which was prepared in sodium acetate buffer (10 mM, pH 5.0) in the ratio of 50/40 (v/v, drug in DMA/GSH solution) for final GSH of 5 mM or 5 μM in pH 7.0, respectively. After incubation for the indicated time, samples were centrifuged to collect the clear supernatant and stored at −30° C. until analysis. RP-HPLC injections were carried out at the specified conditions, and the area of peak was integrated for further calculation.

[5] = Stability and drug release in GSH (RP-HPLC); type: in vitro ADME
Procedure: […] After incubation for the indicated time, samples were centrifuged to collect the clear supernatant and stored at −30° C. until analysis. RP-HPLC injections were carried out at the specified conditions, and the area of peak was integrated for further calculation.

[6] = tested on: orthotopic CRC mice model; test: Orthotopic AOM/DSS-induced CRC mice model, tumor area; type: in vivo, BALB/c mice; settings: SN-38 series; i.v. once every two days for two weeks; 40 mg/kg vs irinotecan 40 mg/kg
Procedure: Azoxymethane (AOM)-induced murine CRC model was applied to model human CRC. BALB/c mice (6 weeks of age, male) were intraperitoneally (i.p.) injected once every two weeks with AOM (10 mg/kg body weight) or the PBS vehicle. Seven days after each AOM injection, 2% dextran sulfate sodium (DSS) was given in the drinking water for four days, followed by 3 days of regular water. This cycle was repeated three times. The mice were randomly divided into eight groups (n=5), on day 60 after the first AOM treatment. […] Tumor volumes and body weights were recorded at sacrifice. The tumors were counted under a dissecting microscope, and the area covered by tumors was measured by imaging software (AxioVision LE 4.8.2.0).

[7] = Body weight changes in the CRC mice model; type: in vivo, BALB/c mice; settings: during treatment in CRC mice model
Procedure: Azoxymethane (AOM)-induced murine CRC model was applied to model human CRC. BALB/c mice (6 weeks of age, male) were intraperitoneally (i.p.) injected once every two weeks with AOM (10 mg/kg body weight) or the PBS vehicle. Seven days after each AOM injection, 2% dextran sulfate sodium (DSS) was given in the drinking water for four days, followed by 3 days of regular water. This cycle was repeated three times. The mice were randomly divided into eight groups (n=5), on day 60 after the first AOM treatment. […] Irinotecan (20 mg/kg), compound 31 (20 mg/kg), and irinotecan+compound 17 (20 mg/kg of irinotecan and 14 mg/kg of compound 17) were injected i.p. q.o.d for two weeks. […] Tumor volumes and body weights were recorded at sacrifice. The tumors were counted under a dissecting microscope, and the area covered by tumors was measured by imaging software (AxioVision LE 4.8.2.0).

[8] = Homo sapiens, HT-29, 48 h, read-out: IC50 HT-29 5 mM GSH
[9] = Homo sapiens, HT-29, 48 h, read-out: IC50 HT-29 w/o GSH
[10] = Homo sapiens, HCT-116, read-out: IC50 HCT-116 5 mM GSH, 48 h, 5 mM GSH
[11] = Homo sapiens, HCT-116, 48 h, w/o GSH, read-out: IC50 HCT-116 w/o GSH
[12] = Homo sapiens, HT-29, 48 h, read-out: IC50 HT-29
[13] = Homo sapiens, HCT-116, read-out: IC50 HCT-116 5 mM GSH, 72 h, prepared in DMA, 5 mM GSH
[14] = Homo sapiens, HCT-116, 48 h, prepared in DMSO, read-out: IC50 HCT-116
[15] = Homo sapiens, HCT-116, 72 h, prepared in DMA, w/o GSH, read-out: IC50 HCT-116 w/o GSH
[16] = read-out: IC50 HT-29 5 mM GSH, 48 h, prepared in DMA, 5 mM GSH
[17] = read-out: IC50 HT-29 w/o GSH, 48 h, prepared in DMA, w/o GSH
[18] = 72 h, prepared in DMA, w/o GSH, read-out: IC50 HCT-116 w/o GSH
[19] = read-out: IC50 HCT-116 5 mM GSH, 72 h, prepared in DMA, 5 mM GSH
[20] = read-out: IC50 HT-29, 48 h, prepared in DMSO

| Compound | IC50 [1, 8] [µM] | IC50 [1, 9] [µM] | cytotoxicity against CRC cell lines, in words [2] | IC50 [3, 10] [µM] | IC50 [3, 11] [µM] | IC50 [1, 12] [µM] | IC50 [3, 13] [µM] | IC50 [3, 14] [µM] | IC50 [3, 15] [µM] | further results |
| --- | --- | --- | --- | --- | --- | --- | --- | --- | --- | --- |
| O=C(CCCCCN1C(=O)CC(SCCOCCOCCOc2cc(O)c(C(=O)CCc3ccc(O)cc3)c(O[C@@H]3O[C@H](CO)[C@@H](O)C(O)[C@H]3O)c2)C1=O)OCn1cc(F)c(=O)[nH]c1=O (stereo partly drawn) [Compound 4, (5-Fluoro-2,4-dioxo-3,4-dihydropyrimidin-1(2H)-yl)methyl 6-(3-((2-(2-(2-(3-hydroxy-4-(3-(4-hydroxyphenyl)propanoyl)-5-(((2S,3R,5S,6R)-3,4,5-trihydroxy-6-(hydroxymethyl)tetrahydro-2H-pyran-2-yl)oxy)phenoxy)ethoxy)ethoxy)ethyl)thio)-2,5-dioxopyrrolidin-1-yl)hexanoate] | 93.6 ± 9.4 | > 100 | poorly cytotoxic | > 100 | 97.4 ± 20.3 | – | – | – | – | – |
| O=C(CCCCCN1C(=O)CC(SCCOCCOCCOc2cc(O)c(C(=O)CCc3ccc(O)cc3)c(O)c2)C1=O)OCn1cc(F)c(=O)[nH]c1=O (centres unmarked) [Compound 5, (5-Fluoro-2,4-dioxo-3,4-dihydropyrimidin-1(2H)-yl)methyl 6-(3-((2-(2-(2-(3,5-dihydroxy-4-(3-(4-hydroxyphenyl)propanoyl)phenoxy)ethoxy)ethoxy)ethyl)thio)-2,5-dioxopyrrolidin-1-yl)hexanoate] | 86.9 ± 2.9 | 43.7 ± 5 | poorly cytotoxic | 82.8 ± 4.18 | 75 ± 13.7 | – | – | – | – | half-life in human plasma [4]: 48 min; release of 5-FU, in words ([5]; 5 mM GSH, after 48 h): Little 5-FU was released |
| O=C(CCCSSCCOCCOCCOc1cc(O)c(C(=O)CCc2ccc(O)cc2)c(O[C@@H]2O[C@H](CO)[C@@H](O)C(O)[C@H]2O)c1)OCn1cc(F)c(=O)[nH]c1=O (stereo partly drawn) [Compound 6, (5-fluoro-2,4-dioxo-3,4-dihydropyrimidin-1(2H)-yl)methyl 4-((2-(2-(2-(3-hydroxy-4-(3-(4-hydroxyphenyl)propanoyl)-5-(((2S,3R,5S,6R)-3,4,5-trihydroxy-6-(hydroxymethyl)tetrahydro-2H-pyran-2-yl)oxy)phenoxy)ethoxy)ethoxy)ethyl)disulfanyl)butanoate] | 8 ± 0.52 | 59.8 ± 7.93 | – | 23.8 | 54.9 | – | – | – | – | half-life at 2.5 mM ([5]; PBS containing GSH, pH 7.4, highly reductive environments, read-out: half-lives in highly reductive environments): < 300 min |
| O=C(CCc1cn(CCOCCOCCOc2cc(O)c(C(=O)CCc3ccc(O)cc3)c(O[C@@H]3O[C@H](CO)[C@@H](O)C(O)[C@H]3O)c2)nn1)OCn1cc(F)c(=O)[nH]c1=O (stereo partly drawn) [Compound 8, (5-Fluoro-2,4-dioxo-3,4-dihydropyrimidin-1(2H)-yl)methyl 3-(1-(2-(2-(2-(3-hydroxy-4-(3-(4-hydroxyphenyl)propanoyl)-5-(((2S,3R,5S,6R)-3,4,5-trihydroxy-6-(hydroxymethyl)tetrahydro-2H-pyran-2-yl)oxy)phenoxy)ethoxy)ethoxy)ethyl)-1H-1,2,3-triazol-4-yl)propanoate] | – | > 100 | poorly cytotoxic | – | > 100 | – | – | – | – | – |
| O=C(CCc1ccc(O)cc1)c1c(O)cc(OCCOCCOCCS)cc1O [Compound 17, 1-(2,6-Dihydroxy-4-(2-(2-(2-mercaptoethoxy)ethoxy)ethoxy)phenyl)-3-(4-hydroxyphenyl)propan-1-one] | 24.2 ± 0.4 | 29.1 ± 6.14 | – | 15.9 ± 0.89 | 15.5 ± 0.72 | 29.1 ± 6.14 | 15.9 ± 0.89 | 15.5 ± 0.72 | 15.5 ± 0.72 | IC50 ([2]; Homo sapiens, HCT-116 and HT-29, over Tables 1 to 3): 15 to 30 µM |
| CCc1c2c(nc3ccc(OC(=O)OCCSSCCOCCOCCOc4ccc(O)c(C(=O)CCc5ccc(O)cc5)c4O[C@@H]4O[C@H](CO)[C@@H](O)[C@H](O)[C@H]4O)cc13)-c1cc3c(c(=O)n1C2)COC(=O)[C@]3(O)CC [Compound 30, (S)-4,11-diethyl-4-hydroxy-3,14-dioxo-3,4,12,14-tetrahydro-1H-pyrano[3′,4′:6,7]indolizino[1,2-b]quinolin-9-yl(2-((2-(2-(2-(4-hydroxy-3-(3-(4-hydroxyphenyl)propanoyl)-2-(((2S,3R,4S,5S,6R)-3,4,5-trihydroxy-6-(hydroxymethyl)tetrahydro-2H)pyran-2-yl)oxy)phenoxy)ethoxy)ethoxy)ethyl)disulfanyl)ethyl) carbonate] | – | – | less or similar cytotoxicity | – | – | – | – | – | – | half-life in human plasma [4]: 20 min; IC50 [1, 16]: 0.0301 ± 0.0026 µM; IC50 [1, 17]: 0.0396 ± 0.00345 µM; IC50 [3, 18]: 0.00244 ± 0.00017 µM; IC50 [3, 19]: 0.00257 ± 0.00013 µM; release rate of SN-38 ([5]; 5 mM GSH): about 60% |
| CCc1c2c(nc3ccc(OCc4ccc(NC(=O)[C@H](CCCNC(N)=O)NC(=O)[C@@H](NC(=O)CCCCN5C(=O)CC(SCCOCCOCCOc6cc(O)c(C(=O)CCc7ccc(O)cc7)c(O)c6)C5=O)C(C)C)cc4)cc13)-c1cc3c(c(=O)n1C2)COC(=O)[C@]3(O)CC (some centres unmarked) [Compound 38] | – | – | – | – | – | – | – | – | – | anti-tumor efficacy (tumor area), in words [6]: good therapeutic efficacy than irinotecan; also recorded: better anti-tumor efficacy than irinotecan; cytotoxicity in HT-29 cell line, in words [1]: less sensitive; IC50 [1, 20]: > 100 µM; body weight change, in words [7]: did not decrease the body weight; also recorded: no significant change in the body weight |
| O=C(CCc1ccc(O)cc1)c1c(O)cc(O)cc1O [Phloretin (3), phloretin, reference compound] | > 100 | > 100 | – | – | – | > 100 | 77.6 ± 3.42 | > 100 | > 100 | – |
| O=C(CCc1ccc(O)cc1)c1c(O)cc(O)cc1O[C@@H]1O[C@H](CO)[C@@H](O)[C@H](O)[C@H]1O [Phlorizin (2), phlorizin, reference compound] | > 100 | > 100 | – | – | – | > 100 | > 100 | > 100 | > 100 | – |
| CCc1c2c(nc3ccc(O)cc13)-c1cc3c(c(=O)n1C2)COC(=O)[C@]3(O)CC [SN-38 (28), SN-38, reference compound] | – | – | – | – | – | – | – | – | – | IC50 [1, 16]: 0.0113 ± 0.00073 µM; IC50 [1, 20]: 0.43 ± 1e-05 µM; IC50 [1, 17]: 0.0134 ± 0.0004 µM; IC50 ([2]; HCT-116 and HT-29, Tables 2 and 3): 0.002 to 0.43 µM; IC50 ([3]; 48 h, prepared in DMSO, read-out: IC50 HCT-116): 0.0549 ± 0.00386 µM; IC50 [3, 18]: 0.00237 ± 4e-05 µM; IC50 [3, 19]: 0.00288 ± 8e-05 µM |
